Test results from patent US4672068A, “Antihypertensive 1,4-dihydropyridines having a conjugated ester” (Fujirebio Kabushiki Kaisha, priority 1984, dated 1987).

Tested on: Male spontaneously hypertensive rats (SHR), arterial blood pressure
Test: Depressor response after intravenous administration (30 μg/kg), Table 1
Type: in vivo, rat
Conditions: for Duration: '90<' means greater than 90
Protocol: Male spontaneously hypertensive rats (SHR) which had mean arterial blood pressures higher than 140 mmHg were used for the experiments. Arterial blood pressure was measured through the catherized artery with a pressure transducer (MPU-0.5, manufactured by Nihon Kohden Kabushiki Kaisha). The catheter was inserted into the abdominal aorta via the median coccygcal artery of SHR under light ether anesthesia. The recordings were made on a rectigraph (manufactured by Sanei Sokki Kabushiki Kaisha). The 1,4-dihydropyridine derivatives prepared in the foregoing examples were administered with catheter which was inserted previously into the caudal vein or duodenum at least two hours after the operation. SHR were restrained with wire mesh cage immediately after the operation. Each derivative to be tested was dissolved in 1.5% PVP/ethanol, and then diluted with 0.9% saline or intravenous administration (30 μg/kg), or suspended in 5% gum arabic solution of intraduodenal administration (1 mg/kg).

Row | Compound | The time to reach the lowest BP [min] | ΔBP (Maximum depressor response) [mmHg] | halflife (number in parentheses in Duration column) [min] | Duration [min]
1 | Benzyl 2,4-hexadienyl 4-(2-furyl)-2,6-dimethyl-1,4-dihydropyridine-3,5-dicarboxylate [Example 81] | 2.0 | 25 |  | 
2 | CC=CC=CCOC(=O)C1=C(C)NC(C)=C(C(=O)OC(C)C)C1c1cccc([N+](=O)[O-])c1 (stereo not shown) [Example 68, Isopropyl 2,4-hexadienyl 4-(3-nitrophenyl)-2,6-dimethyl-1,4-dihydropyridine-3,5-dicarboxylate] | 1.4 | 60 | 13 | > 90
3 | CCSCCOC(=O)C1=C(C)NC(C)=C(C(=O)OCC=Cc2ccccc2)C1c1cccc([N+](=O)[O-])c1 (stereo not shown) [Example 41, cinnamyl 2-ethylthioethyl 4-(3-nitrophenyl)-2,6-dimethyl-1,4-dihydropyridine-3,5-dicarboxylate] | 5 | 28 |  | > 120
4 | CCCC(C=Cc1ccccc1)OC(=O)C1=C(C)NC(C)=C(C(=O)OC)C1c1cccc([N+](=O)[O-])c1 (stereo not shown) [Example 10, 1-propyl-3-phenyl-2-propenyl methyl 4-(3-nitrophenyl)-2,6-dimethyl-1,4-dihydropyridine-3,5-dicarboxylate] | 12.5 | 72 |  | > 90
5 | CC=CC=CCOC(=O)C1=C(C)NC(C)=C(C(=O)OCC2CC2)C1c1cccc([N+](=O)[O-])c1 (stereo not shown) [Example 85, Cyclopropylmethyl 2,4-hexadienyl 4-(3-nitrophenyl)-2,6-dimethyl-1,4-dihydropyridine-3,5-dicarboxylate] | 2.6 | 35 |  | 
6 | CC=CC=CCOC(=O)C1=C(C)NC(C)=C(C(=O)OCCOC)C1c1cccc([N+](=O)[O-])c1 (stereo not shown) [Example 69, 2-methoxyethyl 2,4-hexadienyl 4-(3-nitrophenyl)-2,6-dimethyl-1,4-dihydropyridine-3,5-dicarboxylate] | 1.0 | 60 |  | > 90
7 | CC=CC=CCOC(=O)C1=C(C)NC(C)=C(C(=O)OCCC)C1c1cccc([N+](=O)[O-])c1 (stereo not shown) [Example 84, n-propyl 2,4-hexadienyl 4-(3-nitrophenyl)-2,6-dimethyl-1,4-dihydropyridine-3,5-dicarboxylate] | 2 | 35 |  | 
8 | COC(=O)C1=C(C)NC(C)=C(C(=O)OC(C)(C)C=Cc2ccccc2)C1c1cccc([N+](=O)[O-])c1 (stereo not shown) [Example 23, 1,1-dimethyl-3-phenyl-2-propenyl methyl 4-(3-nitrophenyl)-2,6-dimethyl-1,4-dihydropyridine-3,5-dicarboxylate] | 2.2 | 48 |  | 
9 | CC=CC=CCOC(=O)C1=C(C)NC(C)=C(C(=O)OCCCC)C1c1cccc([N+](=O)[O-])c1 (stereo not shown) [Example 83, n-butyl 2,4-hexadienyl 4-(3-nitrophenyl)-2,6-dimethyl-1,4-dihydropyridine-3,5-dicarboxylate] | 2.6 | 45 |  | 
10 | COC(=O)C1=C(C)NC(C)=C(C(=O)OC(C)C=CC2=C(C)CCCC2(C)C)C1c1cccc([N+](=O)[O-])c1 (stereo not shown) [Example 74] | 20 | 75 |  | > 120
11 | CCOC(=O)C1=C(C)NC(C)=C(C(=O)OC(C)C=Cc2ccccc2)C1c1cccc([N+](=O)[O-])c1 (stereo not shown) [Example 31, 1-methyl-3-phenyl-2-propenyl ethyl 4-(3-nitrophenyl)-2,6-dimethyl-1,4-dihydropyridine-3,5-dicarboxylate] | 40 | 73 |  | > 170
12 | COC(=O)C1=C(C)NC(C)=C(C(=O)OCC(C)=Cc2ccccc2)C1c1cccc([N+](=O)[O-])c1 (stereo not shown) [Example 22, 2-methyl-3-phenyl-2-propenyl methyl 4-(3-nitrophenyl)-2,6-dimethyl-1,4-dihydropyridine-3,5-dicarboxylate] | 1.8 | 50 |  | 120
13 | COC(=O)C1=C(C)NC(C)=C(C(=O)OCC=CC=Cc2cccs2)C1c1cccc([N+](=O)[O-])c1 (stereo not shown) [Example 51, Methyl 5-(2-thienyl)-2,4-pentadienyl 4-(3-nitrophenyl)-2,6-dimethyl-1,4-dihydropyridine-3,5-dicarboxylate] | 2.0 | 40 |  | > 90
14 | CC=CC=CCOC(=O)C1=C(C)NC(C)=C(C(=O)OCC=Cc2ccccc2)C1c1cccc([N+](=O)[O-])c1 (stereo not shown) [Example 71, Cinnamyl 2,4-hexadienyl 4-(3-nitrophenyl)-2,6dimethyl-1,4-dihydropyridine-3,5-dicarboxylate] | 10 | 42 |  | > 90
15 | CC1=C(C(=O)OCC#Cc2ccccc2)C(c2cccc([N+](=O)[O-])c2)C(C(=O)OCC=Cc2ccccc2)=C(C)N1 (stereo not shown) [Example 46, Cinnamyl phenylpropargyl 4-(3-nitrophenyl)-2,6-dimethyl-1,4-dihydropyridine-3,5-dicarboxylate] | 20 | 20 |  | 
16 | COC(=O)C1=C(C)NC(C)=C(C(=O)OC/C=C/C=C\c2ccccc2)C1c1cccc([N+](=O)[O-])c1 (stereo not shown) [Example 58, Methyl (2E,4Z)-5-phenyl-2,4-pentadienyl 4-(3-nitrophenyl)-2,6-dimethyl-1,4-dihydropyridine-3,5-dicarboxylate] | 1.9 | 64 |  | 
17 | CC=CC=CCOC(=O)C1=C(C)NC(C)=C(C(=O)OC(C)(C)C)C1c1cccc([N+](=O)[O-])c1 (stereo not shown) [Example 75, tert-butyl 2,4-hexadienyl 4-(3-nitrophenyl)-2,6-dimethyl-1,4-dihydropyridine-3,5-dicarboxylate] | 1 | 28 |  | 
18 | C=C(C)COC(=O)C1=C(C)NC(C)=C(C(=O)OCC=CC=CC)C1c1cccc([N+](=O)[O-])c1 (stereo not shown) [Example 77, 2-methyl-2-propen-1-yl 2,4-hexadienyl 4-(3-nitrophenyl)-2,6-dimethyl-1,4-dihydropyridine-3,5-dicarboxylate] | 2 | 60 |  | 
19 | COCCOC(=O)C1=C(C)NC(C)=C(C(=O)OCC=CC=Cc2ccccc2)C1c1cccc([N+](=O)[O-])c1 (stereo not shown) [Example 62, 2-methoxyethyl 5-phenyl-2,4-pentadienyl 4-(3-nitrophenyl)-2,6-dimethyl-1,4-dihydropyridine-3,5-dicarboxylate] | 2.0 | 60 |  | > 90
20 | COC(=O)C1=C(C)NC(C)=C(C(=O)OCCC=Cc2ccc([N+](=O)[O-])cc2)C1c1cccc([N+](=O)[O-])c1 (stereo not shown) [Example 21, 4(p-nitrophenyl)-3-butenyl methyl 4-(3-nitrophenyl)-2,6-dimethyl-1,4-dihydropyridine-3,5-dicarboxylate] | 1.0 | 70 |  | > 120
21 | COC(=O)C1=C(C)NC(C)=C(C(=O)OC(C=Cc2ccccc2)C(C)(C)C)C1c1cccc([N+](=O)[O-])c1 (stereo not shown) [Example 6, 1-tert-butyl-3-phenyl-2-propenyl methyl 4-(3-nitrophenyl)-2,6-dimethyl-1,4-dihydropyridine-3,5-dicarboxylate] | 70 | 55 |  | > 90
22 | CC1=C(C(=O)OCC=Cc2ccccc2)C(c2cccc([N+](=O)[O-])c2)C(C(=O)OC(C)C=Cc2ccccc2)=C(C)N1 (stereo not shown) [Example 47, Cinnamyl 1-methyl-3-phenyl-2-propenyl 4-(3-nitrophenyl)-2,6-dimethyl-1,4-dihydropyridine-3,5-dicarboxylate] | 48 | 67 |  | > 120
23 | COCCOC(=O)C1=C(C)NC(C)=C(C(=O)OC(C)C=Cc2ccccc2)C1c1cccc([N+](=O)[O-])c1 (stereo not shown) [Example 34, 1-methyl-3-phenyl-2-propenyl 2-methoxyethyl 4-(3-nitrophenyl)-2,6-dimethyl-1,4-dihydropyridine-3,5-dicarboxylate] | 5 | 45 |  | > 230
24 | COCCOC(=O)C1=C(C)NC(C)=C(C(=O)OCC=Cc2ccccc2)C1c1cccc([N+](=O)[O-])c1 (stereo not shown) [Example 13, Cinnamyl 2-methoxyethyl 4-(3-nitrophenyl)-2,6-dimethyl-1,4-dihydropyridine-3,5-dicarboxylate] | 2.0 | 35 |  | > 270
25 | COC(=O)C1=C(C)NC(C)=C(C(=O)OCC=CC=Cc2ccc3ccccc3c2)C1c1cccc([N+](=O)[O-])c1 (stereo not shown) [Example 53, Methyl 5-(2-naphthyl)-2,4-pentadienyl 4-(3-nitrophenyl)-2,6-dimethyl-1,4-dihydropyridine-3,5-dicarboxylate] | 18 | 25 |  | 90
26 | CCOC(=O)C1=C(C)NC(C)=C(C(=O)OCC=CC=Cc2ccccc2)C1c1cccc([N+](=O)[O-])c1 (stereo not shown) [Example 60, ethyl 5-phenyl-2,4-pentadienyl 4-(3-nitrophenyl)-2,6-dimethyl-1,4-dihydropyridine-3,5-dicarboxylate] | 4.0 | 60 |  | > 90
